These results are taken from patent US20240383887A1, “DEUTERATED IRAK DEGRADERS AND USES THEREOF” (Kymera Therapeutics, Inc., priority 2021, published 2024).

One experiment concerns the target T1, IRAK4 (Homo sapiens, UniProt Q9NWZ3).
T1 construct: endogenous in cells; host or cells: OCI-LY10
T1 sequence (Q9NWZ3 1-460): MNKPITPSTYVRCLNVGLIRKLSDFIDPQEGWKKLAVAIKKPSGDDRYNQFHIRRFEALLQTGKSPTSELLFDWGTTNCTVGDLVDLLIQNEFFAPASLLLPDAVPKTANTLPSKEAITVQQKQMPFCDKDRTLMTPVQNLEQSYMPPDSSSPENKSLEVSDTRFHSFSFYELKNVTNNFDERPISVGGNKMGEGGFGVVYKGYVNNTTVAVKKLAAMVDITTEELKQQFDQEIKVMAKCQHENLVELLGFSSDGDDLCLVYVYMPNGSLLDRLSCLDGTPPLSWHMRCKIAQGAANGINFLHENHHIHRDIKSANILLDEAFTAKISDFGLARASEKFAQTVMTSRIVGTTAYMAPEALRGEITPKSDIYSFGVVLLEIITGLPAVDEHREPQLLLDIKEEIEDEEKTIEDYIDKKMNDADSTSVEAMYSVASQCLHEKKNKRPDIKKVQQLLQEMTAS
As to the kind of experiment: IRAK4 MSD degradation in OCI-LY10. It is filed as cell-based. The note with it: OCI-LY10 cells, 24 hrs, Meso Scale Discovery; read-out: IRAK4 MSD degradation in OCI-LY10 at 24 hrs: Average external-Abs DC50. On the procedure:
Degradation of IRAK4 in OCI-LY10 was quantitatively measured using Meso Scale Discovery technology. OCI-LY10 cells were seeded in 96-well plates (Corning 3799) with a density of 300,000 cells per well in 100 μL fresh media. Compounds were then added to the assay plates with a final top concentration of 1 to 10 μM in a 1:3 dilution series with total of 8 doses. The assay plates were then incubated for 4 to 24 hours at 37 under 5% CO2. The assay plates were then centrifuged for 5 minutes and the cell pellets were treated with 100 μL/well RIPA lysis buffer (Boston BioProducts BP-115D) with proteinase inhibitors. To prepare MSD assay plates (Meso Scale Discovery Catalog number L15XA-3), the plates were coated with 2 μg/mL capture antibody (mouse Anti-IRAK4 antibody [2H9], ab119942) in PBS, at 40 μL/well. […] The assay plates were then incubated at room temperature for 1 hour, washed 3 times with 150 μL/well TBST buffer, and 150 μL/well MSD reading buffer (Meso Scale Discovery catalog number R92TC-2) was added. The plates were then analyzed by a MSD reader (Meso Scale Discovery, Model Quick Plex SQ 120). The data was then analyzed by software Prism 7.0 from GraphPad and the dose-depended IRAK4 degradation were fit using a three-parameter logistic equation to calculate DC50. […]

The test system of another experiment is OCI-LY10 cells. As to the kind of experiment: CTG Cell Viability Assay with OCI-LY10. It counts as cell-based. To be noted: Homo sapiens, 96 h, 4 days, CellTiter-Glo, read-out: CTG Cell Viability in OCI-LY10: Average external DC50. Here is the method: Compound-mediated viability effect on OCI-LY10 or TMD8 was quantitatively determined using the CellTiter-Glo® Luminescent Cell Viability Assay kit from Promega (Catalog number G7570) following manufacturer's recommended procedures. Briefly, OCI-LY10 cells were seeded into 384 well plates (Grenier Bio-One, Catalog number 781080) with a density of 10,000 cells per well. Compounds were then added to the assay plate with final top concentration of 10 μM and 1:3 dilution series with total of 9 doses. The final DMSO concentration was normalized to 0.2%. The assay plates were incubated at 37° C. for 4 days under 5% CO2. Then the assay plate was equilibrated at room temperature for 10 minutes. To determine cell viability, 30 μL Cell Titer Glo reagent was added to each well and the assay plate was centrifuged at 1000 rpm for 30 second, incubated at room temperature for 10 min, and analyzed by detecting the luminescence using a multimode plate reader (EnVision 2105, PerkinElmer). The data was then analyzed by software Prism 7.0 from GraphPad and the dose response curves were fit using a three-parameter logistic equation to calculate IC50.
The letter codes for IRAK4 IC50 include: A (<0.05 μM), B (0.05-0.1 μM), C (0.1-0.5 μM), D (0.5-1.0 μM), and E (>1.0 μM).
In general terms: In ATP-based viability assays light output follows the ATP content of the culture.

A word on the DC50: it is the concentration giving 50% degradation. Turning to `[2H]C([2H])([2H])C(O)(c1cc2nc([C@H]3CC[C@H](CN4CC5(CC(CCNc6cccc7c6C(=O)N(C6CCC(=O)NC6=O)C7=O)C5)C4)CC3)sc2cc1NC(=O)c1cccc(C(F)(F)F)n1)C([2H])([2H])[2H]` (some centres unmarked) [Compound I-1, N-[2-[4-[[6-[2-[[2-(2,6-dioxo-3-piperidyl)-1,3-dioxo-isoindolin-4-yl]amino]ethyl]-2-azaspiro[3.3]heptan-2-yl]methyl]cyclohexyl]-5-[2,2,2-trideuterio-1-hydroxy-1-(trideuteriomethyl)ethyl]-1,3-benzothiazol-6-yl]-6-(trifluoromethyl)pyridine-2-carboxamide], the 50% degradation concentration (DC50) at IRAK4 is less than 10 nM. Moreover, the IC50 with OCI-LY10 cells lay within 100 to 500 nM.
